{
  "source": "patent US20110118277A1",
  "about": "“METHOD OF TREATING LIVER DISEASE” (priority 2003, published 2011)",
  "key": {"[1]": {"test_system": "Mouse hepatic oval cells (HOC)", "test": "Oval cell growth in culture (WST-8 cell number assay)", "type": "cell-based", "settings": "48 hours; for effect on NE-induced oval cell proliferation: prazosin 10 μM; for effect on NE-induced oval cell proliferation / effect on ISO-induced oval cell proliferation: pertussis toxin 100 ng/ml, PD98059 20 μM, SB202190 10 μM; for effect on ISO-induced oval cell proliferation: propranolol 10 μM", "protocol": "Mouse hepatic oval cells (HOC) (from Dr. Bryon Petersen, University of Florida College of Medicine, Gainesville, Fla.) were maintained in culture with Iscove's modified DMEM according to the protocol described in PNAS 99: 8078-8083, 2002. To confirm that the cells retained their oval cell phenotype in our hands, expression of the embryonic isoform of pyruvate kinase (M2-PK) was evaluated by immunocytochemistry and immunoblot.\nSub-confluent HOC were harvested by gentle trypsinisation and resuspended in serum-free Iscove's modified Dulbecco's minimal essential medium (DMEM), at a density of 5,000 cells/100 μl/well in 96-well plates. […] After 44 hours, cell numbers were assessed by a further 4 h incubation with WST-8 tetrazolium reagent (Dojindo Molecular Technologies, Gaithersburg, Md.) as described in J Clin Invest 106: 501-509, 2000. In viable cells, the tetrazolium salt is metabolized to a colorimetric dye and cell number is proportional to the signal intensity at 450 nm Therefore, this assay reliably detects treatment-induced changes in cell number.\nOval cells were cultured in serum free medium (SF), serum or serum plus increasing concentrations of NE (a) or ISO (c). After 48 hours, the numbers of cells in culture were evaluated. […] Cell numbers were determined after 48 hours."}, "oval cells": {"test_system": "oval cells", "test": "Oval cell accumulation in Dbh-deficient mice fed MCD diet plus ethionine", "type": "in vivo, mouse", "settings": "4 weeks, ISO infused, FIG. 11", "description": "Male Dbh* C57B 116 mice and their heterozygous littermates were generated and maintained as previously described in Cell 91: 583-592, 1997, and used at 30-40 weeks of age. Wild type C57B 116 mice were from Jackson Laboratory (Bar Harbor, Me.) Animals were allowed access to diets and water ad libitum. To induce oval cell expansion, mice were fed methionine choline deficient diets (ICN, Aurora, Ohio) supplemented with 0.15% Ethionine in the drinking water for 4 weeks. […]\nDetails of the staining procedures are as described in Am J Pathol 161: 521-530, 2002. […] Mouse monoclonal OV6 antibody and rat anti-cytokeratin 19 were detected using the DAKO Animal Research Kit, peroxidase (Dako, Denmark). The rabbit polyclonal antibody against 56 and 64 kiD human callus cytokeratins was detected by anti-rabbit Envision (Dako, Denmark) as described in J Pathol 199:191-200, 2003. […]\nFor each liver section, the number of oval cells in 5, randomly selected, non-overlapping, high power (×40 objective) fields was counted. […] Interlobular bile ducts were not considered progenitor cells and, thus not counted as such.\nDbh* and their control Dbh* littermates were fed methionine choline deficient (MCD) diets to induce oval cell expansion. […] Oval cell numbers were counted in 5 randomly selected fields/section from 4 mice/group. […]"}},
  "data": [
    {"molecule": "COc1cccc(-c2cc(=O)c3ccccc3o2)c1N", "note": "[PD98059]", "values": [
      {"measurement": "effect on NE-induced oval cell proliferation", "setting": "[1]", "result": "significantly attenuated"},
      {"measurement": "effect on ISO-induced oval cell proliferation", "setting": "[1]", "result": "significantly attenuated"}
    ]},
    {"molecule": "NC[C@H](O)c1ccc(O)c(O)c1", "note": "[NE, norepinephrine]", "values": [
      {"measurement": "effect on proliferation of cultured oval cells", "setting": "[1]; 5% serum", "result": "significantly promote the proliferation of cultured oval cells"},
      {"measurement": "concentration of maximal proliferative effect", "setting": "[1]; NE, 5% serum", "result": 100, "unit": "nM"},
      {"measurement": "concentration up to which the proliferative effect persists", "setting": "[1]; NE, 5% serum", "result": "up to 100 μM"}
    ]},
    {"molecule": "CC(C)NCC(O)c1ccc(O)c(O)c1", "note": "(centres unmarked) [ISO, isoprenaline]", "values": [
      {"measurement": "effect on proliferation of cultured oval cells", "setting": "[1]; 5% serum", "result": "promotes the proliferation of oval cells"},
      {"measurement": "concentration of peak proliferative activity (biphasic), first peak", "setting": "[1]; ISO, 5% serum", "result": 100, "unit": "nM"},
      {"measurement": "concentration of peak proliferative activity (biphasic), second peak", "setting": "[1]; ISO, 5% serum", "result": 10, "unit": "mM"},
      {"measurement": "hepatic oval cell accumulation in Dbh-deficient mice", "setting": "oval cells", "result": "p<0.05 Dbh*+ISO versus Dbh*"}
    ]},
    {"molecule": "Oc1ccc(-c2nc(-c3ccncc3)c(-c3ccc(F)cc3)[nH]2)cc1", "note": "[SB202190]", "values": [
      {"measurement": "effect on NE-induced oval cell proliferation", "setting": "[1]", "result": "tends to reduce the effect of NE and ISO, but this is not statistically significant"},
      {"measurement": "effect on ISO-induced oval cell proliferation", "setting": "[1]", "result": "tends to reduce the effect of NE and ISO, but this is not statistically significant"}
    ]},
    {"molecule": "CC(C)NCC(O)COc1cccc2ccccc12", "note": "(centres unmarked) [propranolol]", "values": [
      {"measurement": "effect on ISO-induced oval cell proliferation", "setting": "[1]", "result": "attenuated"}
    ]},
    {"molecule": "pertussis toxin", "values": [
      {"measurement": "effect on NE-induced oval cell proliferation", "setting": "[1]", "result": "significantly attenuated"},
      {"measurement": "effect on ISO-induced oval cell proliferation", "setting": "[1]", "result": "significantly attenuated"}
    ]}
  ]
}
